Patent publication US20230102192A1, “THERAPIES FOR THE TREATMENT OF DISEASES AND DISORDERS ASSOCIATED WITH ABNORMAL EXPRESSION OF A NEURAL-ASSOCIATED GENE” (The Regents of the University of California, priority 2020, published 2023)
Entries after “also recorded” stand apart in the source; their conditions may differ. Where two headings read alike, the source gives them in different places.

Tests used:
[1] = cited from earlier work
[2] = tested on: MECP2-KO neurons; test: Multi-electrode array (MEA) of neurons; format: cell-based, human
Procedure: (§1) Pharmacologic treatment. One-month old cortical organoids were treated for 1 mo with either Nefiracetam (10 μM) or PHA 543613 (10 μM) during media changes.
Multi-electrode array (MEA) analysis. MEA analyses of neurons and cortical organoids were performed as described in Nageshappa et al. (Mol. Psychiatry 21:178-188 (2016)). Briefly, 3D neurosphere cultures of NPC derivation were plated on dual-chamber MEA; spontaneous spike activity was evaluated with the MED64 System (Panasonic). Glutamatergic (AP5, NBQX), GABAergic (Gabazine), and gap channel (Mefloquine) antagonism were used to check neuronal activity. After measurement, neurons were immunostained to check morphology and density. Recorded spikes were analyzed with the software Neuroexplorer (Nex Technologies, Madison, Ala., USA). For cortical organoids, 1-month organoids were plated on MEA plates and recordings were collected with a Maestro MEA system and AxIS Software Spontaneous Neural Configuration (Axion Biosystems, Atlanta, Ga., USA) using a customized script. The plate rested in the machine for three minutes followed by four minutes of recording. Axion Biosystems' Neural Metrics Tool classified electrodes with at least 5 spikes/min as active. […] The synchrony index was calculated using a 20 ms cross-correlogram synchrony window was used to determine the synchrony index. […]

[3] = tested on: MECP2-KO neurons; test: Calcium imaging of neurons; format: cell-based, human; details: vs untreated KO
Procedure: as §1
Calcium imaging. Calcium imaging was performed as described in Chailangkarn et al. Briefly, PSC-derived neuronal networks were lentivirally transduced with a Syn::RFP reporter construct. Cultures were washed with Krebs HEPES buffer and incubated with Fluo-4AM (Molecular Probes/Invitrogen, Carlsbad, Calif., USA). A Hamamatsu ORCA-ER digital camera (Hamamatsu Photonics, Japan) with 488 nm filter on an Olympus IX81 inverted fluorescence confocal microscope (Olympus Optical, Tokyo, Japan) acquired 5000 frames at 28 Hz in a 256×256 pixel region (100× magnification). Images were acquired with MetaMorph7.7 (MDS Analytical Technologies, Sunnyvale, Calif., USA) and analyzed with ImageJ and Matlab7.2 (Mathworks, Natick, Mass., USA). Syn::RFP+ neurons were selected following tetrodotoxin blockade of calcium transients. A 95th-percentile threshold of amplitude for calcium spikes was set for event detection; signal amplitude is presented as fluorescence change (ΔF/F) following background subtraction.

[4] = in vivo, cited from earlier work
[5] = target: α7 subtype of neural nicotinic acetylcholine receptors (Homo sapiens, UniProt P36544); details: cited from earlier work
Sequence of α7 subtype of neural nicotinic acetylcholine receptors (P36544 23-502): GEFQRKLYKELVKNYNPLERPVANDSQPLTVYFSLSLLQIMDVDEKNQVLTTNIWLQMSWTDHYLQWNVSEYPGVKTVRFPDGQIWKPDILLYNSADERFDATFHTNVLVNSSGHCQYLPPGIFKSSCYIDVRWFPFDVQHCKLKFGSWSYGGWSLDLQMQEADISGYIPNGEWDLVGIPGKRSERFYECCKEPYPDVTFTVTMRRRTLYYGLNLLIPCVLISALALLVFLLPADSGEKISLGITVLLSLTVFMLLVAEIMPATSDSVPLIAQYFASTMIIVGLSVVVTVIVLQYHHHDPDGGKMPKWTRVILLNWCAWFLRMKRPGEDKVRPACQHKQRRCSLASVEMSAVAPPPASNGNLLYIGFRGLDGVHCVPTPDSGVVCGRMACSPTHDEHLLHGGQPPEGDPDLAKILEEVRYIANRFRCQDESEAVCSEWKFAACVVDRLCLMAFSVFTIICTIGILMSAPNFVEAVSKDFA

Compound | toxicity during clinical trials ([1]; clinical trials) | toxicity on long-term consumption ([1]; humans and primates) | MEA spike frequency / network spiking activity [2] | frequency of calcium oscillations [3] | percentage of active neurons [3] | brain penetration [4] | oral bioavailability [4] | brain penetration ([4]; listed as PHA-543613) | oral bioavailability ([4]; listed as PHA-543613) | agonist activity at α7 nAChR [5]
Cc1cccc(C)c1NC(=O)CN1CCCC1=O [Nefiracetam, nefiracetam] | no evidence of toxicity | no toxicity | increases network spiking activity; also recorded: restore | increases; also recorded: significantly increase | increase |  |  |  |  | 
O=C(N[C@H]1CN2CCC1CC2)c1cc2ccoc2cn1 [PHA 543613, N-[(3R)-1-azabicyclo[2.2.2]oct-3-yl]furo[2,3-c]pyridine-5-carboxamide] |  |  | increases network spiking activity; also recorded: restore | increases; also recorded: significantly increase | increase | rapid brain penetration | high oral bioavailability | high level of brain penetration | good oral bioavailability | potent and selective agonist
